From ChEMBL document CHEMBL3886475, “Substituted hetero-bicyclic compounds, compositions and medicinal applications thereof” (2016) come the findings set out here.

The experiment concerns the target Tyrosine-protein kinase BTK (Homo sapiens, UniProt Q06187). The experiment in a line: Recombinant Human BTK Inhibition Assay: The inhibition assays were performed using the generic tyrosine kinase assay kit from C is Bio (HTRF KinEASE-TK #62TK0PEB). The assay is based on the principle of fluorescence resonance energy transfer (FRET) between the Europium Cryptate labeled anti-phosphotyrosine antibody and streptavidin labeled fluorophore, XL-665. In an uninhibited kinase reaction the biotinylated peptide substrate (Tk-Biotin) gets phosphorylated at an intermediate tyrosine site which is captured by anti-phosphotyrosine antibody which eventually acts as a FRET donor. The streptavidin labeled XL-665 binds strongly to the Tk-Biotin substrate and act as a FRET acceptor. The resultant FRET signal is measured at 665 nm. A ratio of this specific fluorescence (665 nm) to the background fluorescence (620 nm), conferred by the free antibody, is directly proportional to the kinase activity. Inhibition of the kinase activity by a pharmacological intervention such as a Btk inhibitor of the present disclosure will result into decreased FRET signal.

Sequence of Tyrosine-protein kinase BTK (Q06187 whole entry): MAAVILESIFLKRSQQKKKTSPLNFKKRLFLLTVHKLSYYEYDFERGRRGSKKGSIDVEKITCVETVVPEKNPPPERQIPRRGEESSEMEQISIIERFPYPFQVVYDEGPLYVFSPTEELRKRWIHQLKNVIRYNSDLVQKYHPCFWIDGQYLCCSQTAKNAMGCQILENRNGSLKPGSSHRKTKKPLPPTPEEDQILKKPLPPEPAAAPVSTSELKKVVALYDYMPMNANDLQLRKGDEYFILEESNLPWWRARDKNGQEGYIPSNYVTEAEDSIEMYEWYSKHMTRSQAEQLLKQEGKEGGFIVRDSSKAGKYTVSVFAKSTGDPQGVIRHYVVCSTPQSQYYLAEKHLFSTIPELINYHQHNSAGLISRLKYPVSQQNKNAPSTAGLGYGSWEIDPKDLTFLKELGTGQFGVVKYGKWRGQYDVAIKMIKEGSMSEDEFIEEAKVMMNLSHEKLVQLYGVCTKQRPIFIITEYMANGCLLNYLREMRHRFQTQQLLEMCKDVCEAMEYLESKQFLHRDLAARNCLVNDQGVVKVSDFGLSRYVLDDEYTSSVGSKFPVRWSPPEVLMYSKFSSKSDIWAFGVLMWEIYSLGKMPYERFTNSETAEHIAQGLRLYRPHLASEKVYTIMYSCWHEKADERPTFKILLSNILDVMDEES

Take `CCN1CC(n2cc(-c3cc4c(-c5cccc(N6CCOc7cc(C8CC8)ccc7C6=O)c5CO)ccnc4[nH]3)cn2)C1`: the IC50 is 7 nM.
